#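 Interpolation was linear, between the two tested concentrations surrounding the appropriate level; five concentrations were tested over 48 hours in 96-well plates. TGI marks complete inhibition of growth.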
# Key:
# Assay in all cases: inhibition of tumour cell growth, NCI panel, 48 h
# 786-0 renal = test system: 786-0 renal
# A498 renal = test system: A498 renal
# A549 NSCLC = test system: A549 NSCLC
# ACHN renal = test system: ACHN renal
# BT-549 breast = test system: BT-549 breast
# CAKI-1 renal = test system: CAKI-1 renal
# CCRF-CEM leukemia = test system: CCRF-CEM leukemia
# COLO 205 colon = test system: COLO 205 colon
# DU-145 prostate = test system: DU-145 prostate
# EKVX NSCLC = test system: EKVX NSCLC
# HCC-2998 colon = test system: HCC-2998 colon
# HCT-116 colon = test system: HCT-116 colon
# HCT-15 colon = test system: HCT-15 colon
# HL-60(TB) leukemia = test system: HL-60(TB) leukemia
# HOP-62 NSCLC = test system: HOP-62 NSCLC
# HS 578T breast = test system: HS 578T breast
# HT29 colon = test system: HT29 colon
# IGROV1 ovarian = test system: IGROV1 ovarian
# K-562 leukemia = test system: K-562 leukemia
# KM12 colon = test system: KM12 colon
# LOX IMVI melanoma = test system: LOX IMVI melanoma
# M14 melanoma = test system: M14 melanoma
# MALME-3M melanoma = test system: MALME-3M melanoma
# MCF7 breast = test system: MCF7 breast
# MDA-MB-231 breast = test system: MDA-MB-231 breast
# MDA-MB-435 = test system: MDA-MB-435
# MDA-N = test system: MDA-N
# MOLT-4 leukemia = test system: MOLT-4 leukemia
# NCI-H226 lung = test system: NCI-H226 lung
# NCI-H23 lung = test system: NCI-H23 lung
# NCI-H460 lung = test system: NCI-H460 lung
# NCI-H522 lung = test system: NCI-H522 lung
# NCI/ADR-RES ovarian = test system: NCI/ADR-RES ovarian
# OVCAR-3 ovarian = test system: OVCAR-3 ovarian
# OVCAR-4 ovarian = test system: OVCAR-4 ovarian
# OVCAR-5 ovarian = test system: OVCAR-5 ovarian
# OVCAR-8 ovarian = test system: OVCAR-8 ovarian
# PC-3 prostate = test system: PC-3 prostate
# RXF 393 renal = test system: RXF 393 renal
# SF-268 CNS = test system: SF-268 CNS
# SF-295 CNS = test system: SF-295 CNS
# SF-539 CNS = test system: SF-539 CNS
# SK-MEL-2 melanoma = test system: SK-MEL-2 melanoma
# SK-MEL-28 melanoma = test system: SK-MEL-28 melanoma
# SK-MEL-5 melanoma = test system: SK-MEL-5 melanoma
# SK-OV-3 ovarian = test system: SK-OV-3 ovarian
# SN12C renal = test system: SN12C renal
# SNB-19 CNS = test system: SNB-19 CNS
# SW-620 colon = test system: SW-620 colon
# T-47D breast = test system: T-47D breast
# TK-10 renal = test system: TK-10 renal
# U251 CNS = test system: U251 CNS
# UACC-257 melanoma = test system: UACC-257 melanoma
# UACC-62 melanoma = test system: UACC-62 melanoma
# HOP-92 NSCLC = test system: HOP-92 NSCLC
# SNB-75 CNS = test system: SNB-75 CNS
# UO-31 renal = test system: UO-31 renal
# RPMI-8226 leukemia = test system: RPMI-8226 leukemia
structure (smiles),measurement,setting,value
N/C(=N\N=C\c1cc(I)cc(I)c1O)NO,TGI,786-0 renal,> 100 µM
same,TGI,A498 renal,> 100 µM
same,TGI,A549 NSCLC,> 100 µM
same,TGI,ACHN renal,74.1 µM
same,TGI,BT-549 breast,> 100 µM
same,TGI,CAKI-1 renal,> 100 µM
same,TGI,CCRF-CEM leukemia,52.4 µM
same,TGI,COLO 205 colon,> 100 µM
same,TGI,DU-145 prostate,> 100 µM
same,TGI,EKVX NSCLC,> 100 µM
same,TGI,HCC-2998 colon,> 100 µM
same,TGI,HCT-116 colon,76.2 µM
same,TGI,HCT-15 colon,> 100 µM
same,TGI,HL-60(TB) leukemia,35.4 µM
same,TGI,HOP-62 NSCLC,> 100 µM
same,TGI,HS 578T breast,> 100 µM
same,TGI,HT29 colon,> 100 µM
same,TGI,IGROV1 ovarian,> 100 µM
same,TGI,K-562 leukemia,> 100 µM
same,TGI,KM12 colon,> 100 µM
same,TGI,LOX IMVI melanoma,> 100 µM
same,TGI,M14 melanoma,44.2 µM
same,TGI,MALME-3M melanoma,56.7 µM
same,TGI,MCF7 breast,74.7 µM
same,TGI,MDA-MB-231 breast,> 100 µM
same,TGI,MDA-MB-435,> 100 µM
same,TGI,MDA-N,> 100 µM
same,TGI,MOLT-4 leukemia,> 100 µM
same,TGI,NCI-H226 lung,44.5 µM
same,TGI,NCI-H23 lung,79.3 µM
same,TGI,NCI-H460 lung,> 100 µM
same,TGI,NCI-H522 lung,> 100 µM
same,TGI,NCI/ADR-RES ovarian,8.41 µM
same,TGI,OVCAR-3 ovarian,14.6 µM
same,TGI,OVCAR-4 ovarian,> 100 µM
same,TGI,OVCAR-5 ovarian,> 100 µM
same,TGI,OVCAR-8 ovarian,> 100 µM
same,TGI,PC-3 prostate,> 100 µM
same,TGI,RXF 393 renal,> 100 µM
same,TGI,SF-268 CNS,> 100 µM
same,TGI,SF-295 CNS,> 100 µM
same,TGI,SF-539 CNS,75.6 µM
same,TGI,SK-MEL-2 melanoma,> 100 µM
same,TGI,SK-MEL-28 melanoma,> 100 µM
same,TGI,SK-MEL-5 melanoma,> 100 µM
same,TGI,SK-OV-3 ovarian,> 100 µM
same,TGI,SN12C renal,> 100 µM
same,TGI,SNB-19 CNS,> 100 µM
same,TGI,SW-620 colon,> 100 µM
same,TGI,T-47D breast,> 100 µM
same,TGI,TK-10 renal,> 100 µM
same,TGI,U251 CNS,> 100 µM
same,TGI,UACC-257 melanoma,> 100 µM
same,TGI,UACC-62 melanoma,95.5 µM
CCOC(=O)c1nc2ccc(C(F)(F)F)cc2nc1Nc1ccc(F)cc1,TGI,786-0 renal,> 100 µM
same,TGI,A498 renal,> 100 µM
same,TGI,A549 NSCLC,82.9 µM
same,TGI,ACHN renal,> 100 µM
same,TGI,BT-549 breast,> 100 µM
same,TGI,CAKI-1 renal,> 100 µM
same,TGI,COLO 205 colon,> 100 µM
same,TGI,DU-145 prostate,> 100 µM
same,TGI,HCT-116 colon,> 100 µM
same,TGI,HCT-15 colon,> 100 µM
same,TGI,HL-60(TB) leukemia,> 100 µM
same,TGI,HOP-62 NSCLC,> 100 µM
same,TGI,HOP-92 NSCLC,98.9 µM
same,TGI,HS 578T breast,73.8 µM
same,TGI,HT29 colon,> 100 µM
same,TGI,IGROV1 ovarian,> 100 µM
same,TGI,K-562 leukemia,> 100 µM
same,TGI,KM12 colon,> 100 µM
same,TGI,LOX IMVI melanoma,> 100 µM
same,TGI,M14 melanoma,> 100 µM
same,TGI,MALME-3M melanoma,> 100 µM
same,TGI,MCF7 breast,> 100 µM
same,TGI,MDA-MB-435,> 100 µM
same,TGI,MDA-N,> 100 µM
same,TGI,MOLT-4 leukemia,> 100 µM
same,TGI,NCI-H23 lung,> 100 µM
same,TGI,NCI-H460 lung,> 100 µM
same,TGI,NCI-H522 lung,> 100 µM
same,TGI,NCI/ADR-RES ovarian,> 100 µM
same,TGI,OVCAR-3 ovarian,> 100 µM
same,TGI,OVCAR-4 ovarian,> 100 µM
same,TGI,OVCAR-5 ovarian,> 100 µM
same,TGI,OVCAR-8 ovarian,> 100 µM
same,TGI,PC-3 prostate,> 100 µM
same,TGI,RXF 393 renal,> 100 µM
same,TGI,SF-268 CNS,> 100 µM
same,TGI,SF-295 CNS,> 100 µM
same,TGI,SF-539 CNS,> 100 µM
same,TGI,SK-MEL-2 melanoma,> 100 µM
same,TGI,SK-MEL-28 melanoma,> 100 µM
same,TGI,SK-OV-3 ovarian,> 100 µM
same,TGI,SN12C renal,> 100 µM
same,TGI,SNB-19 CNS,> 100 µM
same,TGI,SNB-75 CNS,84.3 µM
same,TGI,SW-620 colon,> 100 µM
same,TGI,T-47D breast,> 100 µM
same,TGI,TK-10 renal,> 100 µM
same,TGI,UACC-257 melanoma,> 100 µM
same,TGI,UACC-62 melanoma,> 100 µM
same,TGI,UO-31 renal,> 100 µM
COC(=O)c1cc(NC(=O)c2cc(NC(=O)Cc3c[nH]c4ccccc34)cn2C)cn1C,TGI,786-0 renal,> 100 µM
same,TGI,A498 renal,78.5 µM
same,TGI,A549 NSCLC,> 100 µM
same,TGI,ACHN renal,> 100 µM
same,TGI,BT-549 breast,> 100 µM
same,TGI,CAKI-1 renal,> 100 µM
same,TGI,CCRF-CEM leukemia,> 100 µM
same,TGI,COLO 205 colon,76.3 µM
same,TGI,DU-145 prostate,> 100 µM
same,TGI,EKVX NSCLC,74.3 µM
same,TGI,HCT-116 colon,84.1 µM
same,TGI,HCT-15 colon,> 100 µM
same,TGI,HL-60(TB) leukemia,95.4 µM
same,TGI,HOP-62 NSCLC,> 100 µM
same,TGI,HT29 colon,55.8 µM
same,TGI,K-562 leukemia,> 100 µM
same,TGI,KM12 colon,> 100 µM
same,TGI,LOX IMVI melanoma,> 100 µM
same,TGI,M14 melanoma,> 100 µM
same,TGI,MALME-3M melanoma,77.2 µM
same,TGI,MCF7 breast,> 100 µM
same,TGI,MDA-MB-231 breast,77.1 µM
same,TGI,MDA-MB-435,> 100 µM
same,TGI,MDA-N,> 100 µM
same,TGI,MOLT-4 leukemia,> 100 µM
same,TGI,NCI-H226 lung,> 100 µM
same,TGI,NCI-H23 lung,83.5 µM
same,TGI,NCI-H460 lung,> 100 µM
same,TGI,NCI/ADR-RES ovarian,> 100 µM
same,TGI,OVCAR-3 ovarian,> 100 µM
same,TGI,OVCAR-4 ovarian,> 100 µM
same,TGI,OVCAR-5 ovarian,> 100 µM
same,TGI,OVCAR-8 ovarian,> 100 µM
same,TGI,PC-3 prostate,96.2 µM
same,TGI,RPMI-8226 leukemia,48.4 µM
same,TGI,RXF 393 renal,> 100 µM
same,TGI,SF-268 CNS,> 100 µM
same,TGI,SF-295 CNS,> 100 µM
same,TGI,SF-539 CNS,> 100 µM
same,TGI,SK-MEL-2 melanoma,68.1 µM
same,TGI,SK-MEL-28 melanoma,> 100 µM
same,TGI,SK-MEL-5 melanoma,63.8 µM
same,TGI,SK-OV-3 ovarian,> 100 µM
same,TGI,SN12C renal,> 100 µM
same,TGI,SNB-19 CNS,85.7 µM
same,TGI,SNB-75 CNS,92.9 µM
same,TGI,SW-620 colon,> 100 µM
same,TGI,T-47D breast,> 100 µM
same,TGI,TK-10 renal,> 100 µM
same,TGI,UACC-62 melanoma,60.8 µM
same,TGI,UO-31 renal,85.2 µM
CCO/C(O)=C(/C(=N)N1CCCC1)C(=O)Nc1cccc(Cl)c1,TGI,786-0 renal,> 100 µM
same,TGI,A498 renal,> 100 µM
same,TGI,A549 NSCLC,> 100 µM
same,TGI,ACHN renal,> 100 µM
same,TGI,BT-549 breast,> 100 µM
same,TGI,CAKI-1 renal,> 100 µM
same,TGI,CCRF-CEM leukemia,> 100 µM
same,TGI,COLO 205 colon,> 100 µM
same,TGI,DU-145 prostate,> 100 µM
same,TGI,EKVX NSCLC,> 100 µM
same,TGI,HCC-2998 colon,> 100 µM
same,TGI,HCT-116 colon,> 100 µM
same,TGI,HCT-15 colon,> 100 µM
same,TGI,HL-60(TB) leukemia,> 100 µM
same,TGI,HOP-62 NSCLC,> 100 µM
same,TGI,HS 578T breast,> 100 µM
same,TGI,HT29 colon,> 100 µM
same,TGI,IGROV1 ovarian,> 100 µM
same,TGI,K-562 leukemia,> 100 µM
same,TGI,KM12 colon,> 100 µM
same,TGI,LOX IMVI melanoma,> 100 µM
same,TGI,M14 melanoma,> 100 µM
same,TGI,MALME-3M melanoma,> 100 µM
same,TGI,MCF7 breast,> 100 µM
same,TGI,MDA-MB-231 breast,> 100 µM
same,TGI,MDA-MB-435,> 100 µM
same,TGI,MDA-N,> 100 µM
same,TGI,MOLT-4 leukemia,> 100 µM
same,TGI,NCI-H226 lung,> 100 µM
same,TGI,NCI-H23 lung,> 100 µM
same,TGI,NCI-H460 lung,> 100 µM
same,TGI,NCI-H522 lung,> 100 µM
same,TGI,NCI/ADR-RES ovarian,> 100 µM
same,TGI,OVCAR-3 ovarian,> 100 µM
same,TGI,OVCAR-4 ovarian,> 100 µM
same,TGI,OVCAR-5 ovarian,> 100 µM
same,TGI,OVCAR-8 ovarian,> 100 µM
same,TGI,PC-3 prostate,> 100 µM
same,TGI,RPMI-8226 leukemia,> 100 µM
same,TGI,RXF 393 renal,> 100 µM
same,TGI,SF-268 CNS,> 100 µM
same,TGI,SF-295 CNS,> 100 µM
same,TGI,SF-539 CNS,> 100 µM
same,TGI,SK-MEL-2 melanoma,> 100 µM
same,TGI,SK-MEL-28 melanoma,> 100 µM
same,TGI,SK-OV-3 ovarian,> 100 µM
same,TGI,SN12C renal,> 100 µM
same,TGI,SNB-19 CNS,> 100 µM
same,TGI,SNB-75 CNS,> 100 µM
same,TGI,SW-620 colon,> 100 µM
same,TGI,T-47D breast,> 100 µM
same,TGI,TK-10 renal,> 100 µM
same,TGI,U251 CNS,> 100 µM
same,TGI,UACC-257 melanoma,> 100 µM
same,TGI,UACC-62 melanoma,> 100 µM
